Consider 34 molecules from patent US12208088B2 (Genentech, Inc., priority 2018, dated 2025).

The structures appear in SMILES notation.

In this assay the target is HPK1 (Homo sapiens (Human), UniProt Q92918). In words: HPK1 Lantha binding assay ("Lanth"). The settings on record: binding assays; Morrison Ki fit. Summed up: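 TR-FRET binding competition using 2 nM HPK1, 2 nM Eu-anti-GST antibody and 15 nM Tracer222 at 23 °C. Compound was incubated 1 h with enzyme and antibody, then 1 h after tracer addition, with an 11-point 5-fold dilution series. Ki obtained from a Morrison fit that corrects for tracer concentration and Kd.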
Chain of HPK1 (Q92918 1-346 limits assumed): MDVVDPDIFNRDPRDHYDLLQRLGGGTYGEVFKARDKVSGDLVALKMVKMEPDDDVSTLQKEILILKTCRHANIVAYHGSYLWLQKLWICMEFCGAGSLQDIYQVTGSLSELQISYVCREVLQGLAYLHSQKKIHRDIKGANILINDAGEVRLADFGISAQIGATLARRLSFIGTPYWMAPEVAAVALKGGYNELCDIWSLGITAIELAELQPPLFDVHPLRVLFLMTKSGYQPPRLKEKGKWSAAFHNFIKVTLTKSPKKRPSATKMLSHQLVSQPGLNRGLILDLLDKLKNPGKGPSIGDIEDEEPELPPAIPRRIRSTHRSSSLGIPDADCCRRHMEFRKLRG

Take `Nc1cc(-c2cnc3c(c2)C2(CC2)CN3)nc(N2CCCOC2=O)c1` [Compound 293, 3-(4-amino-6-(1′,2′-dihydrospiro[cyclopropane-1,3′-pyrrolo[2,3-b]pyridin]-5′-yl)pyridin-2-yl)-1,3-oxazinan-2-one]: the inhibitory constant (Ki) (in general, a measure of affinity in units of concentration, obtained from inhibition or displacement) amounted to 47.4 nM.

Consider `CN(C)C(=O)c1cc(N)cc(-c2cnc3c(c2)C2(CC2)CN3)n1` [Compound 294, 4-amino-6-(1′,2′-dihydrospiro[cyclopropane-1,3′-pyrrolo[2,3-b]pyridin]-5′-yl)-N,N-dimethylpicolinamide], for which the affinity, expressed as Ki, was 309 nM. In the case of `Nc1cc(-c2cnc3c(c2)C2(CC2)CN3)nc(-c2ncccn2)c1` [Compound 295, 2-(1′,2′-dihydrospiro[cyclopropane-1,3′-pyrrolo[2,3-b]pyridin]-5′-yl)-6-(pyrimidin-2-yl)pyridin-4-amine], the inhibitory constant (Ki) is 387 nM. To `Cn1cccc(-c2cc(-c3cnc4c(c3Cl)C3(CC3)CN4)cc(N)n2)c1=O` [Compound 296, 6-amino-4-(4′-chloro-1′,2′-dihydrospiro[cyclopropane-1,3′-pyrrolo[2,3-b]pyridin]-5′-yl)-1′-methyl-[2,3′-bipyridin]-2′(1′H)-one] belongs 11.4 nM.

Turning to `CN(C)C(=O)c1cccc2c(-c3cnc4c(c3)C3(CC3)CN4)c[nH]c12` [Compound 297, 3-(1′,2′-Dihydrospiro[cyclopropane-1,3′-pyrrolo[2,3-b]pyridin]-5′-yl)-N,N-dimethyl-1H-indole-7-carboxamide], affinity was put at a Ki of 57.6 nM. As for `CN(C)C(=O)c1cccc2c(-c3cnc4c(c3Cl)C3(CC3)CN4)c[nH]c12` [Compound 298, 3-(4′-Chloro-1′,2′-dihydrospiro[cyclopropane-1,3′-pyrrolo[2,3-b]pyridin]-5′-yl)-N,N-dimethyl-1H-indole-7-carboxamide], the affinity corresponds to a Ki of 52.3 nM.

For the molecule `O=C1CCCCN1c1cccc2c(-c3cnc4c(c3)C3(CC3)CN4)c[nH]c12` [Compound 299, 1-(3-(1′,2′-Dihydrospiro[cyclopropane-1,3′-pyrrolo[2,3-b]pyridin]-5′-yl)-1H-indol-7-yl)piperidin-2-one], the Ki was 88.9 nM. The molecule `O=C1CCCCN1c1cccc2c(-c3cnc4c(c3Cl)C3(CCC(O)C3)CN4)c[nH]c12` (stereo not shown) [Compound 300, 1-(3-(4′-Chloro-3-hydroxy-1′,2′-dihydrospiro[cyclopentane-1,3′-pyrrolo[2,3-b]pyridin]-5′-yl)-1H-indol-7-yl)piperidin-2-one] came in with a Ki of 50.6 nM. Consider `CN(C)C(=O)Cc1cccc2c(-c3cnc4c(c3Cl)C3(CC3)CN4)c[nH]c12` [Compound 301, 2-(3-(4′-Chloro-1′,2′-dihydrospiro[cyclopropane-1,3′-pyrrolo[2,3-b]pyridin]-5′-yl)-1H-indol-7-yl)-N,N-dimethylacetamide], for which the inhibition constant Ki came out at 68.2 nM. Molecule `O=C1COCCN1c1cccc2c(-c3cnc4c(c3Cl)C3(CC3)CN4)c[nH]c12` [Compound 302, 4-(3-(4′-Chloro-1′,2′-dihydrospiro[cyclopropane-1,3′-pyrrolo[2,3-b]pyridin]-5′-yl)-1H-indol-7-yl)morpholin-3-one] had an inhibition constant Ki of 46.3 nM. Molecule `O=C1CNCCN1c1cccc2c(-c3cnc4c(c3)C3(CC3)CN4)c[nH]c12` [Compound 303, 1-(3-(1′,2′-Dihydrospiro[cyclopropane-1,3′-pyrrolo[2,3-b]pyridin]-5′-yl)-1H-indol-7-yl)piperazin-2-one] yielded an inhibition constant (Ki) of 32.6 nM. `N#Cc1ccc2[nH]cc(-c3cnc4c(c3)C3(CC3)CN4)c2c1` [Compound 307, 3-(1′,2′-Dihydrospiro[cyclopropane-1,3′-pyrrolo[2,3-b]pyridin]-5′-yl)-1H-indole-5-carbonitrile] displayed a Ki of 17.2 nM. The molecule `Cc1n[nH]cc1-c1cnc2c(c1Cl)C1(CC=CC1)CN2` [Compound 308, 4′-Chloro-5′-(3-methyl-1H-pyrazol-4-yl)-1′,2′-dihydrospiro[cyclopentane-1,3′-pyrrolo[2,3-b]pyridin]-3-ene] showed an inhibition constant (Ki) of 186 nM. As to `COc1c(-c2ccc(N)c(C(=O)N(C)C)n2)cnc2c1C1(CC1)CN2` [Compound 309, 3-Amino-6-(4′-methoxy-1′,2′-dihydrospiro[cyclopropane-1,3′-pyrrolo[2,3-b]pyridin]-5′-yl)-N,N-dimethylpicolinamide], the Ki turned out to be 29 nM. The value for `CN1CCN(c2cc(Cl)cc3c(-c4cnc5c(c4)C4(CC4)CN5)c[nH]c23)C(=O)C1` [Compound 310, 1-(5-Chloro-3-(1′,2′-dihydrospiro[cyclopropane-1,3′-pyrrolo[2,3-b]pyridin]-5′-yl)-1H-indol-7-yl)-4-methylpiperazin-2-one] was 10.6 nM; that for `NC(=O)CCn1cc(-c2cnc3c(c2Cl)C2(CC=CC2)CN3)cn1` [Compound 311, 3-(4-(4′-Chloro-1′,2′-dihydrospiro[cyclopentane-1,3′-pyrrolo[2,3-b]pyridin]-3-en-5′-yl)-1H-pyrazol-1-yl)propanamide] was 161 nM; that for `Clc1ccc2[nH]cc(-c3cnc4c(c3)C3(CC3)CN4)c2c1` [Compound 312, 5′-(5-Chloro-1H-indol-3-yl)-1′,2′-dihydrospiro[cyclopropane-1,3′-pyrrolo[2,3-b]pyridine]] was 45.9 nM. The value for `Cc1ccc2[nH]cc(-c3cnc4c(c3)C3(CC3)CN4)c2c1` [Compound 313, 5′-(5-Methyl-1H-indol-3-yl)-1′,2′-dihydrospiro[cyclopropane-1,3′-pyrrolo[2,3-b]pyridine]] was 73.1 nM. As for `c1ccc2c(-c3cnc4c(c3)C3(CC3)CN4)c[nH]c2c1` [Compound 314, 5′-(1H-Indol-3-yl)-1′,2′-dihydrospiro[cyclopropane-1,3′-pyrrolo[2,3-b]pyridine]], the affinity, expressed as Ki, was 125 nM. Consider `COc1c(-c2c[nH]c3ccc(C#N)cc23)cnc2c1C1(CC1)CN2` [Compound 315, 3-(4′-Methoxy-1′,2′-dihydrospiro[cyclopropane-1,3′-pyrrolo[2,3-b]pyridin]-5′-yl)-1H-indole-5-carbonitrile], for which the Ki was determined as 34.4 nM. As for `Fc1cccc2[nH]cc(-c3cnc4c(c3)C3(CC3)CN4)c12` [Compound 316, 5′-(4-Fluoro-1H-indol-3-yl)-1′,2′-dihydrospiro[cyclopropane-1,3′-pyrrolo[2,3-b]pyridine]], the inhibition constant Ki was found to be 492 nM. The value for `OCCn1cc(-c2cnc3c(c2Cl)C2(CC=CC2)CN3)cn1` [Compound 317, 2-(4-(4′-Chloro-1′,2′-dihydrospiro[cyclopentane-1,3′-pyrrolo[2,3-b]pyridin]-3-en-5′-yl)-1H-pyrazol-1-yl)ethan-1-ol] was 209 nM; that for `NC(=O)Cn1cc(-c2cnc3c(c2Cl)C2(CC=CC2)CN3)cn1` [Compound 318, 2-(4-(4′-Chloro-1′,2′-dihydrospiro[cyclopentane-1,3′-pyrrolo[2,3-b]pyridin]-3-en-5′-yl)-1H-pyrazol-1-yl)acetamide] was 236 nM; that for `CN(C)C(=O)Cn1cc(-c2cnc3c(c2Cl)C2(CC=CC2)CN3)cn1` [Compound 319, 2-(4-(4′-Chloro-1′,2′-dihydrospiro[cyclopentane-1,3′-pyrrolo[2,3-b]pyridin]-3-en-5′-yl)-1H-pyrazol-1-yl)-N,N-dimethylacetamide] was 306 nM. `CC(C)(O)Cn1cc(-c2cnc3c(c2Cl)C2(CC=CC2)CN3)cn1` [Compound 320, 1-(4-(4′-Chloro-1′,2′-dihydrospiro[cyclopentane-1,3′-pyrrolo[2,3-b]pyridin]-3-en-5′-yl)-1H-pyrazol-1-yl)-2-methylpropan-2-ol]: the Ki came out at 337 nM.

As to `Cc1[nH]ncc1-c1cnc2c(c1)C1(CC1)CN2` [Compound 321, 5′-(5-Methyl-1H-pyrazol-4-yl)-1′,2′-dihydrospiro[cyclopropane-1,3′-pyrrolo[2,3-b]pyridine]], the Ki is 321 nM. To `N#Cc1ccc2[nH]nc(-c3cnc4c(c3)C3(CC3)CN4)c2c1` [Compound 322, 3-(1′,2′-Dihydrospiro[cyclopropane-1,3′-pyrrolo[2,3-b]pyridin]-5′-yl)-1H-indazole-5-carbonitrile] belongs 37.3 nM; to `Clc1c(-c2cnn(Cc3ccccc3)c2)cnc2c1C1(CC=CC1)CN2` [Compound 323, 5′-(1-Benzyl-1H-pyrazol-4-yl)-4′-chloro-1′,2′-dihydrospiro[cyclopentane-1,3′-pyrrolo[2,3-b]pyridin]-3-ene], 603 nM; to `CN1CCN(c2cc(C#N)cc3c(-c4cnc5c(c4)C4(CC4)CN5)c[nH]c23)C(=O)C1` [Compound 324, 3-(1′,2′-Dihydrospiro[cyclopropane-1,3′-pyrrolo[2,3-b]pyridin]-5′-yl)-7-(4-methyl-2-oxopiperazin-1-yl)-1H-indole-5-carbonitrile], 30.4 nM. On to `N#Cc1ccc2[nH]cc(-c3cnc4c(c3Cl)[C@]3(CC[C@H](O)CC3)CN4)c2c1` [Compound 325a, 3-((1s,4s)-4′-Chloro-4-hydroxy-1′,2′-dihydrospiro[cyclohexane-1,3′-pyrrolo[2,3-b]pyridin]-5′-yl)-1H-indole-5-carbonitrile], for which the affinity, expressed as Ki, was 40.7 nM. Regarding `Cc1n[nH]cc1-c1ccc2[nH]cc(-c3cnc4c(c3)C3(CC3)CN4)c2c1` [Compound 326, 5′-(5-(3-Methyl-1H-pyrazol-4-yl)-1H-indol-3-yl)-1′,2′-dihydrospiro[cyclopropane-1,3′-pyrrolo[2,3-b]pyridine]], the inhibition constant Ki was found to be 76 nM. `COCCn1cc(-c2cnc3c(c2Cl)C2(CC=CC2)CN3)cn1` [Compound 327, 4′-Chloro-5′-(1-(2-methoxyethyl)-1H-pyrazol-4-yl)-1′,2′-dihydrospiro[cyclopentane-1,3′-pyrrolo[2,3-b]pyridin]-3-ene] showed an inhibition constant (Ki) of 397 nM. The molecule `c1nc2c(cc1-c1c[nH]c3ccc(C4CC4)cc13)C1(CC1)CN2` [Compound 328, 5′-(5-Cyclopropyl-1H-indol-3-yl)-1′,2′-dihydrospiro[cyclopropane-1,3′-pyrrolo[2,3-b]pyridine]] came in with an inhibitory constant (Ki) of 289 nM.

For `c1cc2[nH]cc(-c3cnc4c(c3)C3(CC3)CN4)c2cn1` [Compound 329, 5-(1H-Pyrrolo[3,2-c]pyridin-3-yl)spiro[1,2-dihydropyrrolo[2,3-b]pyridine-3,1′-cyclopropane]], affinity was put at a Ki of 90 nM.
